Measured values published in ChEMBL document CHEMBL1201862, “PubChem BioAssay data set” (2004).
Activity calls are given as the source filed them.

Key:
INS1 = experiment: beta cell apoptosis inhibitors, cytokine rescue, dose response, luminescence, retest (AID 449756); assay type: functional, cell-based; conditions: Rattus norvegicus;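 also: cell death triggered by IL-1 beta plus TNF-alpha plus IFN-gamma mixture; protective hits raise ATP signal compared with cytokine alone wells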
[1] = target: T1, Rac GTPase-activating protein 1 (Homo sapiens, UniProt Q9H0H5); experiment: MgcRacGAP GTPase-activating activity inhibitors, confirmation, biochemical, ADP Hunter fluorescence, primary and confirmatory (AID 624330); assay type: functional
T1 sequence (Q9H0H5 whole entry): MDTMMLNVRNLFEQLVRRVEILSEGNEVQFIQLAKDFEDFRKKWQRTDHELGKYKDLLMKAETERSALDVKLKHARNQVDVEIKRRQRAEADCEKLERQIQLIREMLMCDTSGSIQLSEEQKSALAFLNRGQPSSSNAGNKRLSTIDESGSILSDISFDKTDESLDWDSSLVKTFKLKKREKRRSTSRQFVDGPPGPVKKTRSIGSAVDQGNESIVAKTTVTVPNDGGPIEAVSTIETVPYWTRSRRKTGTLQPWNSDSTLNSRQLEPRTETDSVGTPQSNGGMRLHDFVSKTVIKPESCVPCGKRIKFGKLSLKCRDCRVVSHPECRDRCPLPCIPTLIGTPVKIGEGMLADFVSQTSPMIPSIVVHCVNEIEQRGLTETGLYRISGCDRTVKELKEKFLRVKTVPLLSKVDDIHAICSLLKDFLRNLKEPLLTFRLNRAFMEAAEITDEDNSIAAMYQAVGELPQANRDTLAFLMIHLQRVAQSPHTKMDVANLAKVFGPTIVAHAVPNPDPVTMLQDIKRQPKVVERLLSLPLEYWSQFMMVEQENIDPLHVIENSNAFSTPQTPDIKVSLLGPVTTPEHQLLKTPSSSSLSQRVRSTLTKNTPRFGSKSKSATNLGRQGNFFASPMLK

[2] = HeLa cell cytotoxicity, dose response, cytotoxicity control for MgcRacGAP inhibitor project (AID 624300); assay type: functional
Prothrombin = Prothrombin (Bos taurus, UniProt P00735); experiment: thrombin inhibition, dose response, biochemical, fluorescence polarization, uHTS hits (AID 602369); assay type: functional
[3] = target: T2, Ubiquitin-conjugating enzyme E2 N (Homo sapiens, UniProt P61088); assay type: functional
T2 sequence (P61088 whole entry): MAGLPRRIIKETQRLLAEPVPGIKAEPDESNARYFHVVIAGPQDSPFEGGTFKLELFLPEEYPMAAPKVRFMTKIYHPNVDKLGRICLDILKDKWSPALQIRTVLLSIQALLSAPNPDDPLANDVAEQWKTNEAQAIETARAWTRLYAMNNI

[4] = target: T3, Apoptotic protease-activating factor 1 (Homo sapiens, UniProt O14727); assay type: functional
T3 sequence (O14727 whole entry): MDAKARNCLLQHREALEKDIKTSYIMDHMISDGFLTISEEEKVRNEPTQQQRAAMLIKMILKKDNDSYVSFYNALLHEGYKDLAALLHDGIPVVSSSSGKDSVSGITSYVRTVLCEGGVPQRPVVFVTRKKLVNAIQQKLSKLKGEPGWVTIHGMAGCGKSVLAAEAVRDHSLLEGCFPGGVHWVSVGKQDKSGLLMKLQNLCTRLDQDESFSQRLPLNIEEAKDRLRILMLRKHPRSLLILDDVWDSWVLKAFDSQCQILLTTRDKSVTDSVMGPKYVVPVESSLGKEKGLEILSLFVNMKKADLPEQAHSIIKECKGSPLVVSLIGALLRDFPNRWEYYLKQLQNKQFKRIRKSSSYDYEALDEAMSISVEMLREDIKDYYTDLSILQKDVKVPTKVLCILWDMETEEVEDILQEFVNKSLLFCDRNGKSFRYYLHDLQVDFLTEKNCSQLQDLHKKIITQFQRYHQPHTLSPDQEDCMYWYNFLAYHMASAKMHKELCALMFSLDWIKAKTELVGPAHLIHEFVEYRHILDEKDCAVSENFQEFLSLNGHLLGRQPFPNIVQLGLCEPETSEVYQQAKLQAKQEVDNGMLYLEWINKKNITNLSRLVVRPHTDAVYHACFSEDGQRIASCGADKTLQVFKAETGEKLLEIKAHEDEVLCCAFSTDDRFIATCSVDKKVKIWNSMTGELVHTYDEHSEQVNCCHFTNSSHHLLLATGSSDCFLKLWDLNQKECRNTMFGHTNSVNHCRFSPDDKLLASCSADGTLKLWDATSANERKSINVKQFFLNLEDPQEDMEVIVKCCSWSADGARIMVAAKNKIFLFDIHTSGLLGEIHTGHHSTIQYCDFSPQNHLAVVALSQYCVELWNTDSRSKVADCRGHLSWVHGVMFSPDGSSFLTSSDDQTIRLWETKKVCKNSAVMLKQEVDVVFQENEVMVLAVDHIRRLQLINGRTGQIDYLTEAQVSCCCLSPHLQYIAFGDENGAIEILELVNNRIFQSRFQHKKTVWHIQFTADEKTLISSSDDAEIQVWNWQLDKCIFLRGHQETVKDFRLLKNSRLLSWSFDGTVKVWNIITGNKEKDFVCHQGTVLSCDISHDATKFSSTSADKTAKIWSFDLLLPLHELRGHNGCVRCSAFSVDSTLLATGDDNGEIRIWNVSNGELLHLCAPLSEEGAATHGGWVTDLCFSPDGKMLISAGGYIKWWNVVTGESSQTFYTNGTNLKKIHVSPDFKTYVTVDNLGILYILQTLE

Bcl-2-related protein A1 = target: T4, Bcl-2-related protein A1 (Mus musculus, UniProt Q07440); assay type: functional;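 also: confirmatory dose–response counterscreen on Bfl-1, used to check hits from a UBC13 polyubiquitin inhibitor campaign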
T4 sequence (Q07440 whole entry): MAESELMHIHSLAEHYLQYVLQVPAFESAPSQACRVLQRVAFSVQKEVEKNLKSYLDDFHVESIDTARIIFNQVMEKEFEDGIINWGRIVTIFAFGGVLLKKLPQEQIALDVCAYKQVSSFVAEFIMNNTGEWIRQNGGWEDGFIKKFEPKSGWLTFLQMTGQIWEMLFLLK

Streptococcus = experiment: Group A Streptococcus viability loss, dose response, counter-screen for streptokinase expression inhibitor project, luminescence, BacTiterGlo (AID 1915); assay type: functional, organism-based;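 also: potency for reduction of bacterial viability or growth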
[5] = microbe, parasite or virus in culture; assay type: functional; conditions: Mycobacterium tuberculosis
[6] = NIH-3T3 fibroblast cytotoxicity, dose response, cytotoxicity control, cell-based, fluorescence, Alamar Blue, secondary assay (AID 2327); assay type: functional;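 also: NIH-3T3 mouse fibroblasts cultured with fluconazole at 8 µg/mL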
[7] = target: T5, Small ubiquitin-related modifier 1 (Homo sapiens, UniProt P63165); experiment: inhibitors of SUMO1 peptide binding, dose response, biochemical, fluorescence polarization, uHTS hits (AID 624382); assay type: functional; conditions: read-out: IC50_Mean
T5 sequence (P63165 whole entry): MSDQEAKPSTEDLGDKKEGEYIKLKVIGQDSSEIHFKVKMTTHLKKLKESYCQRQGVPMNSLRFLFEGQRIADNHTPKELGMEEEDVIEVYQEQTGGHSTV

[8] = target: T2, Ubiquitin-conjugating enzyme E2 N; assay type: functional; remark: listed apart in the source
[9] = target: T5, Small ubiquitin-related modifier 1; experiment: inhibitors of SUMO1 partner interactions, dose response, biochemical, FRET (AID 624383); assay type: functional; conditions: read-out: IC50_Mean

N=C(N)N/N=C/c1ccc(N(c2ccccc2)c2ccccc2)cc1
inactive: IC50 [7] > 66.6 µM
active: AC50 (INS1) 7.12 µM | IC50 [1] 60.7 µM | CC50 [2] 17.1 µM | IC50 (Prothrombin) 41.8 µM | IC50 [3] 1.11 µM | IC50 [4] 28.2 µM | IC50 (Bcl-2-related protein A1) 3.85 µM | EC50 (Streptococcus) 3.39 µM | CC50 [5] 6.42 µM | IC50 [8] 8.24 µM | IC50 [9] 8.67 µM
inconclusive: EC50 [6] 18.5 µM
